Reference: publication PMC9653339, “Revisiting the anticancer properties of phosphane(9-ribosylpurine-6-thiolato)gold(I) complexes and their 9H-purine precursors” (Journal of Biological Inorganic Chemistry, 2022)

How the values were obtained:
[1] = tested on: HCT-116^p53−/− (p53 knockout mutant) colon carcinoma cells; test: MTT cell viability assay, HCT-116 p53-/-; assay type: cell-based, human; conditions: 72 h
Method: (§1) Cells were seeded in 96-well microtiter plates (Sarstedt) with a cell density of 0.05 × 10^6 cells per ml and 100 µL per well and incubated for 24 h. A dilution series of test compounds was added to the wells, ranging in twelve steps from 100 µM to 5 nM. As a control, equal amounts of DMSO were added. Treated cells were further incubated for 72 h. Then, 12.5 µL per well of MTT solution (0.05% in phosphate-buffered saline (PBS)) was added, followed by another 2 h of incubation. The plates were centrifuged, the medium was discarded and 25 µL per well of SDS solution in DMSO (10% SDS, 0.6% AcOH in DMSO) was added to dissolve the formazan. The plates were incubated for a further hour. Absorbances at 570 nm and 630 nm were measured using a plate reader (Tecan). Background absorbance (630 nm) was subtracted from the formazan signal (570 nm). The resulting absorbance was directly proportional to the amount of viable cells. The control was normalized to 100% viable cells and viability of cells treated with test compounds was calculated accordingly. IC50 values were calculated based on a sigmoidal fit model using GraphPad Prism. Means and SD were calculated from at least four independent experiments.

EA.hy926 cells = test: Tube formation assay; assay type: cell-based, human; conditions: 5 µM (CA-4 0.01 µM)
Method: EA.hy926 cells were cultured overnight in endothelial medium (37 °C, 95% humidity, 5% CO2) instead of DMEM. In addition, Matrigel was thawed on ice in the refrigerator. Pipette tips and 96-well plates were stored at − 20 °C overnight. The next day, 30 µL of Matrigel was added to each well bubble-free and the well plate was incubated for approximately 45 min (37 °C, 95% humidity, 5% CO2). Subsequently, 100 µL of cell suspension was added to each well at a concentration of 0.4–0.5 × 10^6 cells/mL onto the Matrigel-treated wells and the substances were added in tenfold pre-dilution. This was followed by incubation for approximately 6 h, until tubes formed in the negative control with DMSO. At this point, documentation under the microscope took place.

518A2 melanoma cells = test: MTT cell viability assay, 518A2; assay type: cell-based, human; conditions: 72 h
Method: as §1, with “All complexes stable in solution were investigated for their anti-proliferative effect on nine human cancer cell lines, using the MTT-based cell viability assay. Cells” for “Cells”

[2] = tested on: HeLa cervix carcinoma cells; test: MTT cell viability assay, HeLa; assay type: cell-based, human; conditions: 72 h
Method: as §1, with “All complexes stable in solution were investigated for their anti-proliferative effect on nine human cancer cell lines, using the MTT-based cell viability assay. Cells” for “Cells”

[3] = tested on: human adult dermal fibroblasts HDFa; test: MTT cell viability assay, HDFa; assay type: cell-based; conditions: 72 h, non-malignant fibroblasts
Method: as §1, with “All complexes stable in solution were investigated for their anti-proliferative effect on nine human cancer cell lines, using the MTT-based cell viability assay. Cells” for “Cells”

[4] = tested on: MCF-7 mamma carcinoma cells; test: MTT cell viability assay, MCF-7; assay type: cell-based, human; conditions: 72 h, read-out: IC50 MCF7
Method: as §1, with “All complexes stable in solution were investigated for their anti-proliferative effect on nine human cancer cell lines, using the MTT-based cell viability assay. Cells” for “Cells”

[5] = tested on: HCT-116^wt colon carcinoma cells; test: MTT cell viability assay, HCT-116wt; assay type: cell-based, human; conditions: 72 h
Method: as §1

[6] = tested on: EA.hy926 endothelial hybrid cells; test: MTT cell viability assay, EA.hy926; assay type: cell-based, human; conditions: 72 h
Method: as §1, with “All complexes stable in solution were investigated for their anti-proliferative effect on nine human cancer cell lines, using the MTT-based cell viability assay. Cells” for “Cells”

[7] = tested on: mdr KB-V1^Vbl cervix carcinoma cells; test: MTT cell viability assay, KB-V1 (with and without verapamil); assay type: cell-based, human; conditions: 72 h, without verapamil
Method: as §1, with “All complexes stable in solution were investigated for their anti-proliferative effect on nine human cancer cell lines, using the MTT-based cell viability assay. Cells” for “Cells”

[8] = tested on: HT-29 colon carcinoma cells; test: MTT cell viability assay, HT-29; assay type: cell-based, human; conditions: 72 h
Method: as §1, with “All complexes stable in solution were investigated for their anti-proliferative effect on nine human cancer cell lines, using the MTT-based cell viability assay. Cells” for “Cells”

U-87 glioblastoma cells = test: MTT cell viability assay, U-87; assay type: cell-based, human; conditions: 72 h
Method: as §1, with “All complexes stable in solution were investigated for their anti-proliferative effect on nine human cancer cell lines, using the MTT-based cell viability assay. Cells” for “Cells”

[9] = tested on: mdr MCF-7^Topo mamma carcinoma cells; test: MTT cell viability assay, MCF-7Topo; assay type: cell-based, human; conditions: 72 h, read-out: IC50 MCF7^Topo
Method: as §1, with “All complexes stable in solution were investigated for their anti-proliferative effect on nine human cancer cell lines, using the MTT-based cell viability assay. Cells” for “Cells”

[10] = Stability by NMR in DMSO-d6 + 5% D2O; assay type: physicochemical; conditions: for Stability (31P NMR): DMSO-d6 with additional D2O, three days
Text: In a further corroboration of the complex stability, the similarity of the chalcogens sulfur and selenium was exploited. The selenolato complex 10 was synthesized and examined for its stability under identical conditions. Since ^77Se is a 1/2 spin nucleus with roughly 8% natural abundance, its compounds can be investigated directly. Depending on whether a break in the Se–Au or the Au–PR3 bond would occur, the shift would change by several hundred ppm and serve as unequivocal evidence. […] In addition, we investigated the stability of complexes 1 and 5 as representatives of the series of purines and purine nucleosides, respectively, in cell culture medium by UV/Vis spectroscopy.

[11] = tested on: caspase 3/7 in 518A2 melanoma cells; test: Caspase 3/7 activation; assay type: cell-based, human; conditions: 518A2 cells, 10 µM, 6 h
Method: The assay was conducted, following manufacturer’s instructions using the Cell Meter Caspase 3/7 activity apoptosis assay kit (AAT Bioquest). Briefly, 518A2 melanoma cells were seeded in 96-well flat black microtiter plates with a density of 0.22 × 10^6 cells per mL and 90 µL per well. After 24 h of incubation, 10 µL per well of tenfold diluted test compounds was added, and the cells were incubated for a further 6 h. Subsequently, 100 µL per well of Caspase 3/7 substrate working solution was added and incubated for 1 h in the dark at room temperature. The fluorescence was measured using a micro-plate reader (Tecan) at ex/em = 490/525 nm.

Compound | IC50 [1] [µM] | Inhibition of tube formation (EA.hy926 cells) | IC50 (518A2 melanoma cells) [µM] | IC50 [2] [µM] | IC50 [3] [µM] | IC50 [4] [µM] | IC50 [5] [µM] | IC50 [6] [µM] | IC50 [7] [µM] | IC50 [8] [µM] | IC50 (U-87 glioblastoma cells) [µM] | IC50 [9] [µM] | Stability (31P NMR) [10] | Caspase 3/7 activity [11] | Stability (77Se NMR) ([10]; DMSO-d6 + 5% D2O, identical conditions)
CSc1ncnc2c1ncn2[C@@H]1O[C@H](CO)[C@@H](O)[C@H]1O [6-MMR, 6-methylmercaptopurine riboside, reference compound] | 0.05 ± 0.001 | inhibitory effects | 1.4 ± 0.12 | 0.0056 ± 0.0003 | 5.8 ± 0.46 | 0.09 ± 0.003 | 0.1 ± 0.008 | 0.11 ± 0.001 |  |  |  |  |  |  | 
COc1ccc(/C=C\c2cc(OC)c(OC)c(OC)c2)cc1O [CA-4, combretastatin A-4] |  | Complete inhibition of tube formation |  |  |  |  |  |  |  |  |  |  |  |  | 
c1ccc([PH]([Au][S]c2ncnc3[nH]cnc23)(c2ccccc2)c2ccccc2)cc1 [Complex 1, (1,7-Dihydro-6H-purine-6-thiolato) (triphenylphosphane) gold(I)] | 1.7 ± 0.3 |  | 8 ± 0.71 | 2.6 ± 0.04 |  | 13 ± 1.12 | 4.9 ± 1 | 2.9 ± 0.7 | 1.9 ± 0.1 | 8 ± 0.73 | 0.91 ± 0.09 | 6.6 ± 0.65 |  |  | 
Nc1nc([S][Au][PH](c2ccccc2)(c2ccccc2)c2ccccc2)c2nc[nH]c2n1 [Complex 2, (2-Amino-1,7-dihydro-6H-purine-6-thiolato) (triphenylphosphane) gold(I)] | 0.58 ± 0.01 |  | 4.4 ± 0.33 | 0.6 ± 0.05 |  | 2.2 ± 0.13 | 0.8 ± 0.01 | 0.5 ± 0.1 | 0.3 ± 0.07 | 4.4 ± 0.32 | 1 ± 0.1 | 3.7 ± 0.37 |  |  | 
CC[PH](CC)(CC)[Au][S]c1ncnc2[nH]cnc12 [Complex 3, (1,7-Dihydro-6H-purine-6-thiolato) (triethylphosphane) gold(I)] | 3.6 ± 0.8 |  | 8.4 ± 0.62 | 6.8 ± 0.62 |  | 9.4 ± 0.53 | 6.3 ± 0.3 | 1.5 ± 0.11 | 2.5 ± 0.32 | 6.4 ± 1.4 | 6.9 ± 0.47 | 10 ± 0.26 |  |  | 
CC[PH](CC)(CC)[Au][S]c1nc(N)nc2[nH]cnc12 [Complex 4, (2-Amino-1,7-dihydro-6H-purine-6-thiolato) (triethylphosphane) gold(I)] | 11 ± 0.5 |  | 16 ± 0.91 | 15 ± 4.1 |  | 21 ± 3.4 | 25 ± 3.1 | 1.1 ± 0.08 | 12 ± 1 | 5.8 ± 1.7 | 7 ± 0.66 | 4.9 ± 0.43 | did not change noticeably |  | 
CC[PH](CC)(CC)[Au][S]c1ncnc2c1ncn2[C@@H]1O[C@H](CO)[C@@H](O)[C@H]1O [Complex 7, (1,7-Dihydro-6H-purine-9-β-D-ribofuranosyl-6-thiolato) (triethylphosphane) gold(I)] | 0.5 ± 0.03 |  | 3 ± 0.21 | 0.51 ± 0.05 | 7 ± 0.62 | 2.1 ± 0.2 | 1.6 ± 0.2 | 0.43 ± 0.02 | 0.4 ± 0.04 | 2.2 ± 0.17 | 1.1 ± 0.11 | 1.2 ± 0.11 | did not change noticeably | even exceeded the effects of the three controls | 
CC[PH](CC)(CC)[Au][S]c1nc(N)nc2c1ncn2[C@@H]1O[C@H](CO)[C@@H](O)[C@H]1O [Complex 8, (2-Amino-1,7-dihydro-6H-purine-9-β-D-ribofuranosyl-6-thiolato) (triethylphosphane) gold(I)] | 1.8 ± 0.06 |  | 3.4 ± 0.33 | 2.4 ± 0.21 | 7 ± 0.7 | 10 ± 0.83 | 5.5 ± 0.3 | 1.7 ± 0.14 | 0.7 ± 0.07 | 4.5 ± 0.34 | 1 ± 0.03 | 3.6 ± 0.34 |  |  | 
CC[PH](CC)(CC)[Au][S]c1nc([S][Au][PH](CC)(CC)CC)c2nc[nH]c2n1 [Complex 9, (1,7-Dihydro-6H-purine-2,6-bisthiolato) (triethylphosphane) gold(I)] | 3.7 ± 0.35 |  | 13.4 ± 1.2 | 17.6 ± 0.8 |  |  | 11.2 ± 0.78 |  |  | 11.1 ± 0.32 |  |  |  |  | 
CC[PH](CC)(CC)[Au][Se]c1ncnc2[nH]cnc12 [Complex 10, (1,7-Dihydro-6H-purine-6-selenolato) (triethylphosphane) gold(I)] |  |  |  |  |  |  |  |  |  |  |  |  |  |  | no change in the shift of the ^77Se NMR signal
